Values quoted from earlier work in patent publication US7705000B2, “Oral suspension comprising meloxicam” (Janssen Pharmaceutica N.V., priority 2004, dated 2010).

Conditions: at a pH of 4

Cc1cnc(NC(=O)C2=C(O)c3ccccc3S(=O)(=O)N2C)s1 [meloxicam, 4-hydroxy-2-methyl-N-(5-methyl-2-thiazolyl)-2H-1,2-benzo-thiazine-3-carboxamide-1,1-dioxide]
solubility of meloxicam: 0.5 µg/mL
